According to patent US20230181564A1, “Potent Tetrahydroquinolone Eliminates Apicomplexan Parasites” (The University of Chicago, priority 2020, published 2023):
In brackets after ≈: the same amount, converted by molar mass. One block for each compound: values may come before it.

Columns and labels:
[1] = Kinetic/aqueous solubility in PBS pH 7.4; type: physicochemical; conditions: for PBS Sol pH7.4: solubility in Phosphate Buffered Saline pH 7.4, first value of cell; for solubility: amorphous compounds
Protocol: PBS Sol/Toxicity pH7.4 refers to solubility of the compound in Phosphate Buffered Saline (PBS) at pH7.4. […] Parasites were RH-YFP expressing tachyzoites (Tachy) and EGS (Brady) strains. Studies of effects of inhibitors on HFF or on T.gondii tachyzoites were performed with triplicate wells in at least two biological replicate experiments. Studies of effects on bradyzoites were performed at least twice in at least two biological replicate experiments. Compounds with much less inhibition of mammalian than T. gondii cytochrome bc in the saffarine enzyme assay (indicated by **) provide potential to further develop compounds, if unanticipated toxicity occurs from JAG21.
(§1) Structure Activity Relationship (SAR) and comparison of effect on T.gondii and HFF enzyme activity. […] The MDCK-MDR1 Permeability Assay was also performed. […] These were measured by Chem Partners.

[2] = molecular target: T1, P. falciparum bc1 complex cytochrome c reductase (Pfbc1) (Plasmodium falciparum, UniProt Q02768); assay: Pfbc1 native assay (cytochrome c reduction by parasite extract); type: biochemical; conditions: atovaquone 1 μM positive control, mean±S.D., N=4
T1 construct: Parasite extract was then prepared by disruption with a sonicating probe; endogenous in cells; host or cells: P. falciparum 3D7 blood-stage parasites freed by saponin, sonicated extract
T1 sequence (Q02768 1-376): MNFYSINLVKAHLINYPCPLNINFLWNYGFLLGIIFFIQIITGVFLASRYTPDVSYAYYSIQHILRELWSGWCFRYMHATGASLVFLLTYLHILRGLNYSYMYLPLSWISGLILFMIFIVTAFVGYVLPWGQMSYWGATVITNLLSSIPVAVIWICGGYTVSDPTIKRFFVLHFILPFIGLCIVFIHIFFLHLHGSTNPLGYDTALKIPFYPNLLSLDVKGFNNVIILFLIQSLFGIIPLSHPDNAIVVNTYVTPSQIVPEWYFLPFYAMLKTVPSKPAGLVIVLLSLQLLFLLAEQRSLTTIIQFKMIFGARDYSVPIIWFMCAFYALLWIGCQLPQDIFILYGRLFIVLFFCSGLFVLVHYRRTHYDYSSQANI
Protocol: Enzyme assays. P. falciparum 3D7 strain were obtained from the Liverpool School of Tropical Medicine. Protease cocktail inhibitor was obtained from Roche. Bradford protein assay dye reagent was obtained from Bio-Rad. All other reagents were obtained from Sigma-Aldrich. Decylubiquinol was produced as per Fisher et al. (2009). In brief, 25 mg of decylubiquinone were dissolved in 400 μl of nitrogen-saturated hexane. An equal volume of aqueous 1 M sodium dithionite was added, and the mixture vortexed until colorless. […] Concentrations of decylubiquinol was determined spectrophotometrically on a Cary 300 Bio UV/visible spectrophotometer (Varian, UK) from absolute spectra, using ε288-320=8.1 mM-1·cm^−1. […]
The protocol for the preparation of parasite extract was adapted from Fisher et al. Free parasites were prepared from infected erythrocytes pooled from five T75 flasks, by adding 5 volumes of 0.15% (w/v) saponin in phosphate-buffered saline (137 mM NaCl, 2.7 mM KCl, 1.76 mM K2HPO4, 8.0 mM Na2HPO4, 5.5 mM D-glucose, pH 7.4) for 5 min, followed by three washes by centrifugation in RPMI containing HEPES (25 mM), and a final resuspension in potassium phosphate buffer (50 mM K2HPO4, 50 mM KH2PO4, 2 mM EDTA, pH7.4) containing a protease inhibitor cocktail (Complete Mini; Roche). […] The protein concentration of the parasite extract was determined by Bradford protein assay (Bio-Rad). […]

[3] = Metabolic stability in mouse liver microsomes; type: in vitro ADME; conditions: predicted half-life in mouse liver microsomes; no unit in table (101 minutes for JAG021)
[4] = test system: P-glycoprotein (MDR1, ABCB1); assay: in vitro; type: in vitro ADME, canine; conditions: dog, MDCK-MDR1
Protocol: as §1

[5] = test system: Human Foreskin Fibroblast (HFF); assay: Cytotoxicity assay with WST-1 on HFF; type: cell-based; conditions: for Toxicity* (highest concentration tested that does not show toxicity to HFF): WST assay, second value of cell
Protocol: (§2) PBS Sol/Toxicity pH7.4 refers to solubility of the compound in Phosphate Buffered Saline (PBS) at pH7.4. […] Tachy/Brady IC50 was determined in studies in which cultures of parasites in HFF were treated with varying concentrations of the compound and there was 50% inhibition of the replication (number) of parasites. Parasites were RH-YFP expressing tachyzoites (Tachy) and EGS (Brady) strains. Studies of effects of inhibitors on HFF or on T.gondii tachyzoites were performed with triplicate wells in at least two biological replicate experiments. Studies of effects on bradyzoites were performed at least twice in at least two biological replicate experiments. Compounds with much less inhibition of mammalian than T. gondii cytochrome bc in the saffarine enzyme assay (indicated by **) provide potential to further develop compounds, if unanticipated toxicity occurs from JAG21.
Cytotoxicity Assays in parallel with RH Strain T.gondii in vitro studies. Toxicity assays used WST-1 cell proliferation reagent (Roche) as in Fomovska et al. (2012). HFF were grown on a flat, clear-bottomed, black 96-well plate. Confluent HFF were treated with inhibitory compounds at concentrations of 10 μM and 50 μM. Compounds were diluted in IMDM-C, and 20 μL were added to each designated well, with triplicates for each condition. A gradient with 2 fold-decreasing concentrations of DMSO from 10% to 0% in colorless, translucent IMDM-C was used as a control. The plate was incubated for 72 hours at 37° C. 10 μL WST-1 reagent (Roche) were added to each well. Cells were incubated for 30-60 minutes. Absorbance was read using a fluorimeter at 420 nm. A higher degree of color change (and absorbance) indicated mitochondrial activity and cell viability.
Because T. gondii grows inside cells, if a compound were toxic to host HFF then it would make the compound appear to be spuriously effective (Fomovska et al. 2012; Fomovska et al. 2012a), when in actuality only toxicity for the host cell would be measured. Cytotoxicity to HFF was therefore assessed for all compounds at 10 μM. Results of this experiment are in Table 1, toxicity column. A two-way ANOVA and subsequent pairwise comparison found none of the differences in absorbance, compared to the media-DMSO vehicle controls, to be statistically significant (p>0.05). Most of these compounds are not toxic at 10 μM (the limit of solubility) and that cytotoxicity to cells can be attributed to DMSO in the solution, not the compound.

[6] = test system: T. gondii mitochondrial membrane potential (cytochrome bc); assay: Mitochondrial membrane potential by the safranine method (T. gondii, compared with HFF); type: cell-based, Toxoplasma gondii; conditions: for Effect on T. gondii mitochondrial membrane potential: doses as high as 4 μM
Protocol: T.gondii and HFF Mitochondrial Membrane Potential Measurements—the mitochondrial membrane potential was measured by the safranine method according to Vercesi et al, 1998). Freshly egressed T. gondii tachyzoites were filtered and washed twice with intracellular buffer (125 mM sucrose, 65 mM KCl, 10 mM HEPES-KOH buffer, pH 7.2, 1 mM MgCl2 and 2.5 mM potassium phosphate). After washing, the parasites were resuspended in the same buffer at 10^9/ml. An aliquot of 50 μL of this suspension was added to a cuvette containing Safranin 0, 2.5 μM and Succinate 1 mM in final volume of 2 mL of the intracellular buffer. The fluorescence was measured with a Hitachi 7000 spectrofluorometer with setting Ex. 495/Em. 586. Once the baseline fluorescence is testable, 30 μM digitonin was added to permeabilize the parasites. 85 seconds after permeabilization, the THQ derivatives, dissolved in DMSO, were added. 5 μM of FCCP (Carbonyl cyanide-4-(trifluoromethoxy) phenylhydrazone) was used as an uncoupler reference for calculations and its effect was considered 100%. Similar conditions for measuring the mitochondrial potential of mammalian cells were used with the following changes: the mammalian cells were re-suspended at 10^8/ml. 50 μl of mammalian cells was also used for each run in a cuvette with […]. The substrate used for mammalian cells was 5 mM glutamate and 5 mM malate. A higher concentration of digitonin (50 μM) was used to permeabilize the mammalian cells. The compounds were added at about 400 seconds after permeabilization. Each experiment was repeated at least three times in duplicates. Statistical analysis, unpaired student t test, was performed using GraphPad Prism 8.0 (GraphPad Software, Inc., San Diego, Calif.).
Mitochondrial membrane potential measurements were performed with permeabilized T.gondii tachyzoites in suspension using safranin O, which loads into polarized membranes. T. gondii tachyzoites were permeabilized with digitonin to allow the mitochondrial substrate succinate to cross the membrane and energize the mitochondrion. The fluorescence of safranin O, which loads into energized mitochondria was used to measure the membrane potential. The energized state of the mitochondrion is observed by a decrease in fluorescence (FIGS. 3A,C,E). Trifluoromethoxy carbonylcyanide phenylhydrazone (FCCP) was used to depolarize the membrane, which causes the fluorescence to go up as shown in FIG. 3A. JAG21 depolarized the membrane potential even at concentrations as low as 2 nM (FIG. 3C,D). JAG21 and Atovaquone had similar effects on the mitochondrial membrane potential (FIG. 3D). […] The effect of these THQ compounds against the T. gondii mitochondrial membrane potential was greater than the effect on the human foreskin fibroblast membrane potential (FIG. 3E,F). […]

[7] = test system: T. gondii RH-YFP tachyzoites; assay: In vitro challenge assay, RH strain YFP tachyzoites in HFF; type: cell-based, Toxoplasma gondii; conditions: requires hepatic metabolism
Protocol: as §2
RH strain YFP Tachyzoites. Protocol was adapted from Fomovska et al. (2012; 2012a) for HFF. […] RH-YFP, lysed from host cells by passing twice through a 27-gauge needle, were counted, then diluted to 32,000/mL in IMDM-C. […] Plates were read using a fluorimeter (Synergy H4 Hybrid Reader, BioTek) to ascertain amount of relative fluorescence units (RFU) YFP, to measure parasite burden after treatment. Data were collected using Gen5 software with IC50 calculated by graphical analysis in Excel. […]

PBS Sol pH7.4 [1]: 4.05 μM
inhibition at 1 µM [2]: 81.3 ± 6%
Compound: O=c1c2c([nH]c(CO)c1-c1ccc(Oc3ccc(OC(F)(F)F)cc3)cc1)CCCC2 [JAG099]

solubility ([1]; phosphate buffered saline, pH 7.4, aqueous buffer, kinetic from dmso stock): 2 µM (≈ 0.663 µg/mL)
PBS Sol pH7.4 [1]: 1.97 μM
T1/2 (M) [3]: 20.97
Papp [4]: > 10 ×10⁻⁶ cm/s
efflux ratio [4]: < 1.5
Compound: Cc1[nH]c2c(c(=O)c1-c1ccc(Oc3ccccc3)cc1)CCCC2 [MJM170]

Compound: Cc1[nH]c2c(c(=O)c1-c1ccc(Oc3cccc(C(=O)O)c3)cc1)CCCC2 [JAG047]
Toxicity* (highest concentration tested that does not show toxicity to HFF) [5]: ND/5 μM
Effect on T. gondii mitochondrial membrane potential [6]: almost no effect

Compound: COc1cc(C)c2c(Oc3cccc(C(F)(F)F)c3)c(OC)cc(NC(C)CCCN)c2n1 (stereo not shown) [Tafenoquine]
Activity in tissue culture [7]: not active

Compound: Cc1[nH]c2c(c(=O)c1-c1ccc(Oc3ccc(C(=O)O)cc3)cc1)CCCC2 [JAG046]
Toxicity* (highest concentration tested that does not show toxicity to HFF) [5]: ND/5 μM
Effect on T. gondii mitochondrial membrane potential [6]: almost no effect

Compound: Cc1[nH]c2c(c(=O)c1-c1ccc(Oc3ccc(Cl)cc3)cc1)CCCC2 [JAG050]
solubility [1]: 16 µM (≈ 5.85 µg/mL)
PBS Sol pH7.4 [1]: 16.41 μM
Toxicity to human cells in the in vitro model (HFF) [5]: not toxic
Concentration depolarizing the T. gondii mitochondrial membrane potential ([6]; permeabilized tachyzoites, safranin O): ≥ 200 nM
